Legend:
[1] = test system: LOX IMVI; assay: Growth inhibition of human LOXIMVI cells assessed as cell growth at 10 uM after 48 hrs by sulforhodamine B assay; assay type: functional; conditions: read-out: Activity
[2] = test system: HT-29; assay: Growth inhibition of human HT-29 cells after 48 hrs by sulforhodamine B assay; assay type: functional; conditions: HT-29, 48 h
[3] = test system: HCT-116; assay: Growth inhibition of human HCT116 cells after 48 hrs by sulforhodamine B assay; assay type: functional; conditions: HCT-116, 48 h
[4] = test system: RXF 393; assay: Growth inhibition of human RXF393 cells assessed as cell growth at 10 uM after 48 hrs by sulforhodamine B assay; assay type: functional; conditions: RXF 393, 48 h, read-out: Activity
[5] = test system: HL-60(TB); assay: Growth inhibition of human HL-60(TB) cells assessed as cell growth at 10 uM after 48 hrs by sulforhodamine B assay; assay type: functional; conditions: HL-60, 48 h, read-out: Activity
[6] = test system: SN12C; assay: Growth inhibition of human SN12C cells assessed as cell growth at 10 uM after 48 hrs by sulforhodamine B assay; assay type: functional; conditions: read-out: Activity
[7] = test system: Malme-3M; assay: Growth inhibition of human MALME-3M cells after 48 hrs by sulforhodamine B assay; assay type: functional
[8] = test system: SNB-19; assay: Growth inhibition of human SNB19 cells assessed as cell growth at 10 uM after 48 hrs by sulforhodamine B assay; assay type: functional; conditions: SNB-19, 48 h, read-out: Activity
[9] = test system: TK-10; assay: Growth inhibition of human TK10 cells assessed as cell growth at 10 uM after 48 hrs by sulforhodamine B assay; assay type: functional; conditions: TK-10, 48 h, read-out: Activity
[10] = test system: U-251; assay: Growth inhibition of human U251 cells after 48 hrs by sulforhodamine B assay; assay type: functional; conditions: U-251, 48 h
[11] = test system: 786-0; assay: Growth inhibition of human 786-0 cells assessed as cell growth at 10 uM after 48 hrs by sulforhodamine B assay; assay type: functional; conditions: 786-0, 48 h, read-out: Activity
[12] = test system: SF-295; assay: Growth inhibition of human SF295 cells after 48 hrs by sulforhodamine B assay; assay type: functional, cell-based; conditions: SF-295, 48 h
[13] = Growth inhibition of human Hs 578T cells assessed as cell growth at 10 uM after 48 hrs by sulforhodamine B assay; assay type: functional; conditions: read-out: Activity
[14] = test system: MDA-MB-231; assay: Growth inhibition of human MDA-MB-231 cells after 48 hrs by sulforhodamine B assay; assay type: functional; conditions: MDA-MB-231, 48 h
[15] = test system: IGROV-1; assay: Growth inhibition of human IGROV1 cells after 48 hrs by sulforhodamine B assay; assay type: functional; conditions: IGROV-1, 48 h
[16] = test system: RXF 393; assay: Growth inhibition of human RXF393 cells after 48 hrs by sulforhodamine B assay; assay type: functional; conditions: RXF 393, 48 h
[17] = Growth inhibition of human Hs 578T cells after 48 hrs by sulforhodamine B assay; assay type: functional
[18] = test system: SF-268; assay: Growth inhibition of human SF268 cells assessed as cell growth at 10 uM after 48 hrs by sulforhodamine B assay; assay type: functional; conditions: SF-268, 48 h, read-out: Activity
[19] = test system: NCI-H322M; assay: Growth inhibition of human NCI-H322M cells assessed as cell growth at 10 uM after 48 hrs by sulforhodamine B assay; assay type: functional; conditions: read-out: Activity
[20] = test system: NCI-H322M; assay: Growth inhibition of human NCI-H322M cells after 48 hrs by sulforhodamine B assay; assay type: functional
[21] = test system: MDA-MB-435; assay: Growth inhibition of human MDA-MB-435 cells assessed as cell growth at 10 uM after 48 hrs by sulforhodamine B assay; assay type: functional; conditions: MDA-MB-435, 48 h, read-out: Activity
[22] = test system: MDA-MB-468; assay: Growth inhibition of human MDA-MB-468 cells after 48 hrs by sulforhodamine B assay; assay type: functional, cell-based; conditions: MDA-MB-468, 48 h
[23] = test system: NCI-H23; assay: Growth inhibition of human NCI-H23 cells after 48 hrs by sulforhodamine B assay; assay type: functional; conditions: NCI-H23, 48 h
[24] = test system: SK-MEL-5; assay: Growth inhibition of human SK-MEL-5 cells assessed as cell growth at 10 uM after 48 hrs by sulforhodamine B assay; assay type: functional; conditions: SK-MEL-5, 48 h, read-out: Activity
[25] = test system: UACC-62; assay: Growth inhibition of human UACC62 cells assessed as cell growth at 10 uM after 48 hrs by sulforhodamine B assay; assay type: functional; conditions: UACC-62, 48 h, read-out: Activity
[26] = test system: BT-549; assay: Growth inhibition of human BT549 cells assessed as cell growth at 10 uM after 48 hrs by sulforhodamine B assay; assay type: functional; conditions: BT-549, 48 h, read-out: Activity
[27] = test system: PC-3; assay: Growth inhibition of human PC3 cells after 48 hrs by sulforhodamine B assay; assay type: functional, cell-based; conditions: PC-3, 48 h
[28] = test system: SNB-19; assay: Growth inhibition of human SNB19 cells after 48 hrs by sulforhodamine B assay; assay type: functional; conditions: SNB-19, 48 h
[29] = test system: A549; assay: Growth inhibition of human A549/ATCC cells assessed as cell growth at 10 uM after 48 hrs by sulforhodamine B assay; assay type: functional; conditions: A549, 48 h, read-out: Activity
[30] = test system: A549; assay: Growth inhibition of human A549/ATCC cells after 48 hrs by sulforhodamine B assay; assay type: functional; conditions: A549, 48 h
[31] = test system: NCI-H460; assay: Growth inhibition of human NCI-H460 cells assessed as cell growth at 10 uM after 48 hrs by sulforhodamine B assay; assay type: functional; conditions: NCI-H460, 48 h, read-out: Activity
[32] = test system: OVCAR-5; assay: Growth inhibition of human OVCAR5 cells after 48 hrs by sulforhodamine B assay; assay type: functional; conditions: OVCAR-5, 48 h
[33] = test system: SF-539; assay: Growth inhibition of human SF539 cells assessed as cell growth at 10 uM after 48 hrs by sulforhodamine B assay; assay type: functional; conditions: SF-539, 48 h, read-out: Activity
[34] = test system: MOLT-4; assay: Growth inhibition of human MOLT4 cells after 48 hrs by sulforhodamine B assay; assay type: functional; conditions: MOLT-4, 48 h
[35] = read-out: LC50 (the source's name)

COc1cc(-c2nn(-c3cccc(NC(=O)c4cccc(C(F)(F)F)c4)c3)cc2-c2ccncc2)ccc1Cl
growth at 10 µM [1]: 11.4% | GI50 [2]: 1.39 µM | TGI [2]: 20.1 µM | CC50 [2, 35]: > 50 µM | GI50 [3]: 1.67 µM | TGI [3]: > 50 µM | CC50 [3, 35]: > 50 µM | growth at 10 µM [4]: -42.8% | growth at 10 µM [5]: 1.93% | growth at 10 µM [6]: 34.4% | GI50 [7]: 1.99 µM | LC50 (concentration killing 50% of starting cells) [7]: > 50 µM | TGI [7]: > 50 µM | growth at 10 µM [8]: 47.3% | growth at 10 µM [9]: 8.08% | GI50 [10]: 1.62 µM | LC50 (concentration killing 50% of cells) [10]: > 50 µM | TGI [10]: > 50 µM | growth at 10 µM [11]: 29.8% | GI50 [12]: 1.02 µM | IC50 [12]: 1.02 µM | TGI [12]: 3 µM | CC50 [12, 35]: > 50 µM | growth at 10 µM [13]: -5.69% | GI50 [14]: 1.24 µM | LC50 [14]: > 50 µM | TGI [14]: 9.96 µM | GI50 [15]: 1.83 µM | LC50 (concentration killing 50% of cells) [15]: > 50 µM | TGI [15]: > 50 µM | GI50 [16]: 0.811 µM | LC50 (concentration killing 50% of cells) [16]: > 50 µM | TGI [16]: 3.15 µM | GI50 [17]: 1.07 µM | TGI [17]: > 50 µM | CC50 [17, 35]: > 50 µM | growth at 10 µM [18]: 30.5% | growth at 10 µM [19]: 58.1% | GI50 [20]: 10.8 µM | TGI [20]: > 50 µM | CC50 [20, 35]: > 50 µM | growth at 10 µM [21]: -39.6% | GI50 [22]: 1.32 µM | IC50 [22]: 1.32 µM | TGI [22]: 4.56 µM | CC50 [22, 35]: > 50 µM | GI50 [23]: 1.56 µM | LC50 [23]: > 50 µM | TGI [23]: 32.5 µM | growth at 10 µM [24]: -33% | growth at 10 µM [25]: 27.2% | growth at 10 µM [26]: 26% | GI50 [27]: 1.23 µM | IC50 [27]: 1.23 µM | TGI [27]: > 50 µM | CC50 [27, 35]: > 50 µM | GI50 [28]: 2.46 µM | LC50 (concentration killing 50% of cells) [28]: > 50 µM | TGI [28]: > 50 µM | growth at 10 µM [29]: 7.4% | GI50 [30]: 1.87 µM | LC50 (concentration killing 50% of starting cells) [30]: > 50 µM | TGI [30]: > 50 µM | growth at 10 µM [31]: 4.83% | GI50 [32]: 4.01 µM | LC50 (concentration killing 50% of cells) [32]: > 50 µM | TGI [32]: > 50 µM | growth at 10 µM [33]: -48.8% | GI50 [34]: 2.01 µM | TGI [34]: > 50 µM | CC50 [34, 35]: > 50 µM
